# Key:
# cocklebur = assay: Test B pre/postemergence cocklebur; format: in vivo, Xanthium strumarium; conditions: for Cocklebur plant response rating: scale of 0 to 10 where 0 is no effect and 10 is complete control
# How it was run: (§1)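 Response is a visual 0-to-10 score relative to untreated plants, where 0 means no effect and 10 means complete control, taken twelve to sixteen days after application. Treatments went onto soil at planting and onto foliage of 1- to 4-leaf plants, using a surfactant-containing non-phytotoxic solvent.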
# crabgrass = assay: Test B pre/postemergence crabgrass; format: in vivo, Digitaria sanguinalis; conditions: for Crabgrass plant response rating: scale of 0 to 10 where 0 is no effect and 10 is complete control
# How it was run: as §1
# wheat = assay: Test B pre/postemergence wheat; format: in vivo, Triticum aestivum; conditions: for Wheat plant response rating: scale of 0 to 10 where 0 is no effect and 10 is complete control
# How it was run: as §1
# wild oat [1] = assay: Test B pre/postemergence wild oat; format: in vivo, Avena fatua; conditions: for Wild oats plant response rating: scale of 0 to 10 where 0 is no effect and 10 is complete control
# How it was run: as §1
# dallisgrass = assay: Test D dallisgrass; format: in vivo, Paspalum dilatatum; conditions: Postemergence, 0 to 100 scale
# purple nutsedge = assay: Test D purple nutsedge; format: in vivo, Cyperus rotundus; conditions: Postemergence, 0 to 100 scale
# winter wheat [2] = assay: Test E winter wheat; format: in vivo, Triticum aestivum; conditions: Postemergence, 0 to 100 scale, 0 is no effect, 100 is complete control
# How it was run: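 Visually scored herbicidal effect relative to untreated plants, taken ~21 to 28 days post-application; compound in solvent with surfactant; postemergence sprays at the 1- to 4-leaf stage.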
# blackgrass = assay: Test E blackgrass; format: in vivo, Alopecurus myosuroides; conditions: Preemergence
# green foxtail = assay: Test E green foxtail; format: in vivo, Setaria viridis; conditions: Preemergence
# Italian ryegrass = assay: Test E Italian ryegrass; format: in vivo, Lolium multiflorum; conditions: Preemergence
# winter wheat [3] = assay: Test E winter wheat; format: in vivo, Triticum aestivum; conditions: Preemergence
# wild oat [4] = assay: Test E wild oat; format: in vivo, Avena fatua; conditions: Preemergence
# winter barley = assay: Test E winter barley; format: in vivo, Hordeum vulgare; conditions: Preemergence
# [5] = Postemergence, Rate 125 g/ha, scale 0 to 10, 0 is no effect, 10 is complete control
# [6] = Preemergence, Rate 62 g/ha, scale 0 to 10 (0 no effect, 10 complete control)
# [7] = Rate 500 g/ha, Postemergence, scale 0 to 10, 0 no effect, 10 complete control
# [8] = Rate 16 g/ha, 0 no injury, 100 complete control
# [9] = Rate 32 g/ha, 0 no injury, 100 complete control
# [10] = Rate 64 g/ha, 0 no injury, 100 complete control
# [11] = Rate 125 g/ha, 0 no injury, 100 complete control
# [12] = Rate 125 g/ha, 0 to 100 scale (0 no effect, 100 complete control)
# [13] = Rate 500 g/ha, 0 to 100 scale (0 no effect, 100 complete control)
structure (smiles),measurement,setting,value
COCC(C)n1c(=O)on(C(=O)N(c2ccc(F)cc2F)C(C)C)c1=O (stereo not shown) [Compound 352],"Plant response rating, Cocklebur",cocklebur; [5],0
same,"Plant response rating, Cocklebur",cocklebur; [6],0
same,Cocklebur plant response rating (0 to 10 scale),"cocklebur; Preemergence, Rate 125 g/ha",0
same,Cocklebur plant response rating,"cocklebur; Preemergence, Rate 250 g/ha",0
same,Cocklebur plant response rating,"cocklebur; Preemergence, Rate 500 g/ha",0
same,Cocklebur plant response rating,"cocklebur; Rate 62 g/ha, Postemergence",0
same,"Plant response rating, Cocklebur",cocklebur; [7],0
same,"Plant response rating, Crabgrass",crabgrass; [5],3
same,"Plant response rating, Crabgrass",crabgrass; [6],9
same,Crabgrass plant response rating (0 to 10 scale),"crabgrass; Preemergence, Rate 125 g/ha",10
same,Crabgrass plant response rating,"crabgrass; Preemergence, Rate 250 g/ha",10
same,Crabgrass plant response rating,"crabgrass; Preemergence, Rate 500 g/ha",10
same,Crabgrass plant response rating,"crabgrass; Rate 62 g/ha, Postemergence",1
same,"Plant response rating, Crabgrass",crabgrass; [7],4
same,"Plant response rating, Wheat",wheat; [5],3
same,"Plant response rating, Wheat",wheat; [6],0
same,Wheat plant response rating (0 to 10 scale),"wheat; Preemergence, Rate 125 g/ha",0
same,Wheat plant response rating,"wheat; Preemergence, Rate 250 g/ha",2
same,Wheat plant response rating,"wheat; Preemergence, Rate 500 g/ha",6
same,Wheat plant response rating,"wheat; Rate 62 g/ha, Postemergence",0
same,"Plant response rating, Wheat",wheat; [7],7
same,"Plant response rating, Wild oats",wild oat [1]; [5],0
same,"Plant response rating, Wild oats",wild oat [1]; [6],8
same,Wild oats plant response rating (0 to 10 scale),"wild oat [1]; Preemergence, Rate 125 g/ha",8
same,Wild oats plant response rating,"wild oat [1]; Preemergence, Rate 250 g/ha",9
same,Wild oats plant response rating,"wild oat [1]; Preemergence, Rate 500 g/ha",10
same,Wild oats plant response rating,"wild oat [1]; Rate 62 g/ha, Postemergence",0
same,"Plant response rating, Wild oats",wild oat [1]; [7],7
same,"Plant response rating, Dallisgrass",dallisgrass; [8],0
same,"Plant response rating, Dallisgrass",dallisgrass; [9],70
same,"Plant response rating, Dallisgrass",dallisgrass; [10],80
same,"Plant response rating, Dallisgrass",dallisgrass; [11],100
same,"Plant response rating, Dallisgrass",dallisgrass; Rate 250 g/ha,100
same,"Plant response rating, Purple nutsedge",purple nutsedge; [8],0
same,"Plant response rating, Purple nutsedge",purple nutsedge; [9],0
same,Purple nutsedge plant response rating,purple nutsedge; [10],0
same,Purple nutsedge plant response rating,purple nutsedge; [11],0
same,"Plant response rating, Purple nutsedge",purple nutsedge; Rate 250 g/ha,0
CCC(CC)n1c(=O)on(C(=O)N(c2ccc(F)cc2F)C(C)C)c1=O [Compound 353],"Plant response rating, Cocklebur",cocklebur; [5],0
same,"Plant response rating, Cocklebur",cocklebur; [6],0
same,Cocklebur plant response rating (0 to 10 scale),"cocklebur; Preemergence, Rate 125 g/ha",0
same,Cocklebur plant response rating,"cocklebur; Rate 62 g/ha, Postemergence",0
same,"Plant response rating, Cocklebur",cocklebur; [7],1
same,"Plant response rating, Crabgrass",crabgrass; [5],0
same,"Plant response rating, Crabgrass",crabgrass; [6],7
same,Crabgrass plant response rating (0 to 10 scale),"crabgrass; Preemergence, Rate 125 g/ha",9
same,Crabgrass plant response rating,"crabgrass; Preemergence, Rate 250 g/ha",10
same,Crabgrass plant response rating,"crabgrass; Preemergence, Rate 500 g/ha",10
same,Crabgrass plant response rating,"crabgrass; Rate 62 g/ha, Postemergence",0
same,"Plant response rating, Crabgrass",crabgrass; [7],3
same,"Plant response rating, Wheat",wheat; [5],0
same,"Plant response rating, Wheat",wheat; [6],0
same,Wheat plant response rating (0 to 10 scale),"wheat; Preemergence, Rate 125 g/ha",0
same,Wheat plant response rating,"wheat; Preemergence, Rate 250 g/ha",2
same,Wheat plant response rating,"wheat; Preemergence, Rate 500 g/ha",2
same,Wheat plant response rating,"wheat; Rate 62 g/ha, Postemergence",0
same,"Plant response rating, Wheat",wheat; [7],0
same,"Plant response rating, Wild oats",wild oat [1]; [5],0
same,"Plant response rating, Wild oats",wild oat [1]; [6],0
same,Wild oats plant response rating (0 to 10 scale),"wild oat [1]; Preemergence, Rate 125 g/ha",1
same,Wild oats plant response rating,"wild oat [1]; Preemergence, Rate 250 g/ha",4
same,Wild oats plant response rating,"wild oat [1]; Preemergence, Rate 500 g/ha",6
same,Wild oats plant response rating,"wild oat [1]; Rate 62 g/ha, Postemergence",0
same,"Plant response rating, Wild oats",wild oat [1]; [7],2
same,"Plant response rating, Wheat (winter)",winter wheat [2]; Rate 125 g/ha,20
same,"Plant response rating, Wheat (winter)",winter wheat [2]; Rate 250 g/ha,30
same,"Plant response rating, Wheat (winter)",winter wheat [2]; Rate 500 g/ha,40
same,"Plant response rating, Blackgrass",blackgrass; [12],10
same,"Plant response rating, Blackgrass","blackgrass; Rate 250 g/ha, 0 to 100 scale",50
same,"Plant response rating, Blackgrass",blackgrass; [13],55
same,"Plant response rating, Green foxtail",green foxtail; [12],70
same,"Plant response rating, Green foxtail","green foxtail; Rate 250 g/ha, 0 to 100 scale",100
same,"Plant response rating, Green foxtail",green foxtail; [13],100
same,"Plant response rating, I. Ryegrass",Italian ryegrass; [12],40
same,"Plant response rating, I. Ryegrass","Italian ryegrass; Rate 250 g/ha, 0 to 100 scale",90
same,"Plant response rating, I. Ryegrass",Italian ryegrass; [13],90
same,"Plant response rating, Wheat (winter)",winter wheat [3]; [12],20
same,"Plant response rating, Wheat (winter)","winter wheat [3]; Rate 250 g/ha, 0 to 100 scale",40
same,"Plant response rating, Wheat (winter)",winter wheat [3]; [13],60
same,"Plant response rating, Wild oat",wild oat [4]; [12],30
same,"Plant response rating, Wild oat","wild oat [4]; Rate 250 g/ha, 0 to 100 scale",55
same,"Plant response rating, Wild oat",wild oat [4]; [13],85
same,"Plant response rating, Barley (winter)",winter barley; [12],10
same,"Plant response rating, Barley (winter)","winter barley; Rate 250 g/ha, 0 to 100 scale, 0 no effect, 100 complete control",20
same,"Plant response rating, Barley (winter)",winter barley; [13],30
